Measured values published in US8192962B2, “Processes for detecting toxic substances” (Daikin Industries, Ltd., priority 2001, dated 2012).

Test system: Transport facilitation protein genes
Experiment: DNA chip mRNA expression in yeast, transport facilitation protein genes (Table 5)
Format: cell-based, Saccharomyces cerevisiae S288C
Procedure, shortened: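 Chemical exposure: 2 h, log-phase S. cerevisiae S288C, YPD, 25° C., dose set to inhibit growth without death. Profiling: mRNA labeled by reverse transcription with Cy3- or Cy5-dUTP, hybridized to whole-genome array. Output: fluorescence ratio against untreated culture.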

CN(C)C(=S)SSC(=S)N(C)C [(10), Tetramethylthiuram disulfide]
The level of expressed mRNA in the presence of chemical substance/The level of expressed mRNA in the absence of chemical substance (yeast gene YBL030C): 0.9 | The level of expressed mRNA in the presence of chemical substance/The level of expressed mRNA in the absence of chemical substance (yeast gene YBL099W): 0.7 | The level of expressed mRNA in the presence of chemical substance/The level of expressed mRNA in the absence of chemical substance (yeast gene YBR052C): 2.5 | The level of expressed mRNA in the presence of chemical substance/The level of expressed mRNA in the absence of chemical substance (yeast gene YBR068C): 2.5 | The level of expressed mRNA in the presence of chemical substance/The level of expressed mRNA in the absence of chemical substance (yeast gene YBR127C): 1.3 | The level of expressed mRNA in the presence of chemical substance/The level of expressed mRNA in the absence of chemical substance (yeast gene YBR132C): 1.1 | The level of expressed mRNA in the presence of chemical substance/The level of expressed mRNA in the absence of chemical substance (yeast gene YBR207W): 2.2 | The level of expressed mRNA in the presence of chemical substance/The level of expressed mRNA in the absence of chemical substance (yeast gene YBR293W): 2.4 | The level of expressed mRNA in the presence of chemical substance/The level of expressed mRNA in the absence of chemical substance (yeast gene YBR294W): 5.2 | The level of expressed mRNA in the presence of chemical substance/The level of expressed mRNA in the absence of chemical substance (yeast gene YBR295W): 3.3 | The level of expressed mRNA in the presence of chemical substance/The level of expressed mRNA in the absence of chemical substance (yeast gene YBR298C): 1.1 | The level of expressed mRNA in the presence of chemical substance/The level of expressed mRNA in the absence of chemical substance (yeast gene YCL025C): 0.3 | The level of expressed mRNA in the presence of chemical substance/The level of expressed mRNA in the absence of chemical substance (yeast gene YCL038C): 0.9 | The level of expressed mRNA in the presence of chemical substance/The level of expressed mRNA in the absence of chemical substance (yeast gene YCR024C-A): 0.7 | The level of expressed mRNA in the presence of chemical substance/The level of expressed mRNA in the absence of chemical substance (yeast gene YCR037C): 0.6 | The level of expressed mRNA in the presence of chemical substance/The level of expressed mRNA in the absence of chemical substance (yeast gene YCR098C): 2.4 | The level of expressed mRNA in the presence of chemical substance/The level of expressed mRNA in the absence of chemical substance (yeast gene YDL128W): 0.7 | The level of expressed mRNA in the presence of chemical substance/The level of expressed mRNA in the absence of chemical substance (yeast gene YDL198C): 2.7 | The level of expressed mRNA in the presence of chemical substance/The level of expressed mRNA in the absence of chemical substance (yeast gene YDL206W): 1.5 | The level of expressed mRNA in the presence of chemical substance/The level of expressed mRNA in the absence of chemical substance (yeast gene YDL210W): 1.4 | The level of expressed mRNA in the presence of chemical substance/The level of expressed mRNA in the absence of chemical substance (yeast gene YDL245C): 2.8 | The level of expressed mRNA in the presence of chemical substance/The level of expressed mRNA in the absence of chemical substance (yeast gene YDR038C): 0.9 | The level of expressed mRNA in the presence of chemical substance/The level of expressed mRNA in the absence of chemical substance (yeast gene YDR039C): 1.0 | The level of expressed mRNA in the presence of chemical substance/The level of expressed mRNA in the absence of chemical substance (yeast gene YDR086C): 0.8 | The level of expressed mRNA in the presence of chemical substance/The level of expressed mRNA in the absence of chemical substance (yeast gene YDR270W): 3.6 | The level of expressed mRNA in the presence of chemical substance/The level of expressed mRNA in the absence of chemical substance (yeast gene YDR298C): 1.6 | The level of expressed mRNA in the presence of chemical substance/The level of expressed mRNA in the absence of chemical substance (yeast gene YDR342C): 2.2 | The level of expressed mRNA in the presence of chemical substance/The level of expressed mRNA in the absence of chemical substance (yeast gene YDR343C): 2.1 | The level of expressed mRNA in the presence of chemical substance/The level of expressed mRNA in the absence of chemical substance (yeast gene YDR345C): 1.1 | The level of expressed mRNA in the presence of chemical substance/The level of expressed mRNA in the absence of chemical substance (yeast gene YDR387C): 2.0 | The level of expressed mRNA in the presence of chemical substance/The level of expressed mRNA in the absence of chemical substance (yeast gene YDR497C): 0.8 | The level of expressed mRNA in the presence of chemical substance/The level of expressed mRNA in the absence of chemical substance (yeast gene YEL027W): 1.1 | The level of expressed mRNA in the presence of chemical substance/The level of expressed mRNA in the absence of chemical substance (yeast gene YEL063C): 1.7 | The level of expressed mRNA in the presence of chemical substance/The level of expressed mRNA in the absence of chemical substance (yeast gene YEL065W): 4.9 | The level of expressed mRNA in the presence of chemical substance/The level of expressed mRNA in the absence of chemical substance (yeast gene YER053C): 3.9 | The level of expressed mRNA in the presence of chemical substance/The level of expressed mRNA in the absence of chemical substance (yeast gene YER119C): 1.2 | The level of expressed mRNA in the presence of chemical substance/The level of expressed mRNA in the absence of chemical substance (yeast gene YFL011W): 1.6 | The level of expressed mRNA in the presence of chemical substance/The level of expressed mRNA in the absence of chemical substance (yeast gene YFL041W): 5.1 | The level of expressed mRNA in the presence of chemical substance/The level of expressed mRNA in the absence of chemical substance (yeast gene YFL050C): 1.6 | The level of expressed mRNA in the presence of chemical substance/The level of expressed mRNA in the absence of chemical substance (yeast gene YFL054C): 2.3 | The level of expressed mRNA in the presence of chemical substance/The level of expressed mRNA in the absence of chemical substance (yeast gene YFL055W): 6.5 | The level of expressed mRNA in the presence of chemical substance/The level of expressed mRNA in the absence of chemical substance (yeast gene YGL006W): 1.2 | The level of expressed mRNA in the presence of chemical substance/The level of expressed mRNA in the absence of chemical substance (yeast gene YGL008C): 0.4 | The level of expressed mRNA in the presence of chemical substance/The level of expressed mRNA in the absence of chemical substance (yeast gene YGL104C): 2.1 | The level of expressed mRNA in the presence of chemical substance/The level of expressed mRNA in the absence of chemical substance (yeast gene YGL167C): 1.1 | The level of expressed mRNA in the presence of chemical substance/The level of expressed mRNA in the absence of chemical substance (yeast gene YGL255W): 5.0 | The level of expressed mRNA in the presence of chemical substance/The level of expressed mRNA in the absence of chemical substance (yeast gene YGR055W): 2.4 | The level of expressed mRNA in the presence of chemical substance/The level of expressed mRNA in the absence of chemical substance (yeast gene YGR065C): 2.6 | The level of expressed mRNA in the presence of chemical substance/The level of expressed mRNA in the absence of chemical substance (yeast gene YGR082W): 0.9 | The level of expressed mRNA in the presence of chemical substance/The level of expressed mRNA in the absence of chemical substance (yeast gene YGR096W): 0.8 | The level of expressed mRNA in the presence of chemical substance/The level of expressed mRNA in the absence of chemical substance (yeast gene YGR138C): 1.0 | The level of expressed mRNA in the presence of chemical substance/The level of expressed mRNA in the absence of chemical substance (yeast gene YGR191W): 0.7 | The level of expressed mRNA in the presence of chemical substance/The level of expressed mRNA in the absence of chemical substance (yeast gene YGR197C): 3.2 | The level of expressed mRNA in the presence of chemical substance/The level of expressed mRNA in the absence of chemical substance (yeast gene YGR224W): 0.9 | The level of expressed mRNA in the presence of chemical substance/The level of expressed mRNA in the absence of chemical substance (yeast gene YGR260W): 0.4
